Values joined by “and” are separate entries in the source; they are usually repeats but may differ in a detail not shown here. Equal entries are not always repeated. Where two headings read alike, the source gives them in different places.
Columns and labels:
[1] = system: murine peritoneal exudate cells (PEC); test: "In vitro-ex vivo" effect on the phagocytic activity of exudate peritoneal cells (SRBC phagocytosis); design: species or system mouse (B6 D2 F1); settings: 26 mg/kg/day i.p. (so in the source)
[2] = system: murine peritoneal macrophages; tumor targets Daudi and CEM-CM3; test: "In vitro-ex vivo" effect on the cytotoxic activity of peritoneal macrophages (lysis of 3H-TdR labelled tumor cells); design: species or system mouse (B6 D2 F1, C57B16); tumor targets human
Procedure: Assessment of the "in vitro-ex vivo" effect of ST 557, ST 563, ST 570 and ST 626 on the cytotoxic activity of peritoneal macrophages (M)
Male hybrid B6 D2 F1 aged 7-9 weeks and male inbred mice C57B16 aged 8 weeks were used (4 animals/group).
All the compounds were administered i.p. (25 mg/kg/day). ST 557 was also administered per os (100 mg/kg/day) from day -5 to day -1 (peritoneal exudate cell [PEC] harvesting at day 0).
PEC were obtained from sacrificed animals, 24 hours following the end of treatment, via repeated washings of the abdominal cavity. The peritoneal exudates obtained from each group of animals were pooled.
The macrophage percentage was assessed by counting in a Burker chamber; cell suspensions (concentration=2×10^6 M/ml) were prepared.
The macrophage cytotoxic activity was assessed using the following two tumor cell lines as targets: Daudi, derived from a human lymphoblastoma and CEM-CM3, derived from human lymphoblastic leukemia (both lines are disclosed in ATCC--American Type Culture Collection--Cell lines of hybridoma, 5th Ed.--1985).
The experimental procedure is substantially the same as that described by Herscowitz, H. B. (1981)--Manual of Macrophage Methodology. Dekker M, Editor.
In particular, samples of cell lines were labelled with ^3 H-TdR (tritiated thymidine) and their concentration was adjusted to 5×10^4 cells/ml. They were then added to the macrophage preparations (using 96-well microtiter plates) and the volumes were adjusted so as to obtain Effector (macrophage)/Target (tumor cell) ratios of 20:1; 40:1 and 80:1 in an overall volume of 0.3 ml/well.
Three replicates for each sample were prepared; after 48 and 72 hours of incubation at 37° C. in 5% CO2. Aliquots of 0.1 ml of supernatant were drawn out from each well and counted in a β-counter.
The macrophage cytotoxic activity results in a tumor cell lysis that causes the release of the radioactivity incorporated by the cells into the supernatant.
Based on the βeta-counter data (in cpm) this activity is expressed as the percentage of radioactivity released following lysis with respect to the radioactivity incorporated by the tumor cells.
The relevant formulas are as follows: [formula]
The measures carried out on the samples account for a certain degree of lysis occurring spontaneously in cultured tumor cells not exposed to macrophages. Total radioactivity incorporated by the tumor cells is calculated by conducting a lysis with 1% SDS in distilled water.

[3] = system: peritoneal macrophages of treated mice; target tumor cells; test: "In vitro-ex vivo" effect on the cytostatic activity of peritoneal macrophages; design: species or system mouse (B6 D2 F1); tumor targets human
Procedure: Assessment of the "in vitro-ex vivo" effect of ST 557, ST 563 and ST 570 on the cytostatic activity of peritoneal macrophages
Male B6 D2 F1 mice aged 7-9 weeks (5 animals per group) were used.
The compounds were administered i.p. (25 mg/kg/day), ST 557 and ST 563 were also administered per os (100 mg/kg/day) from day -5 to day -1 (peritoneal cell harvesting at day 0).
The macrophages and target tumor cell lines were prepared as in test 1 and their concentrations were adjusted to 1×10^6 M/ml and 5×10^4 cell/ml, respectively.
Volumes of tumor cells were added to the macrophage preparations so as to obtain Effector/Target ratios of 10:1, 20:1 and 40:1.
Each sample was pulsed with ^3 H-TdR for 18 hours in order to label the tumor cells, which were then collected on filters and counted in a beta-counter.
The macrophage cytostatic activity is expressed as percentage inhibition of tumor cell replication, by assessing the radioactivity incorporated by the tumor cells in each sample with respect to the maximum radioactivity incorporated by a sample consisting of tumor cells only. [formula]

[4] = Tolerability after oral or intravenous administration; design: species or system mouse (Swiss albino); settings: mouse, in vivo, 7 days observation, read-out: Tolerability, dose
Procedure: The test was conducted in male Swiss albino mice weighing 22-24 g.
A group of animals (4 animals/dose) which had been kept fasting for 18 hours, were orally administered the compounds ST 557, ST 563, ST 564 and ST 570 dissolved in twice distilled water.
A further group of animals, which had free access to food and water, were administered intravenously the same compounds dissolved in saline it pH 7. All the animals were kept under observation for 7 days.

splenocytes = test: "In vitro-ex vivo" effect on the mytogen (PHA, LPS)-induced splenocyte proliferation in mice; design: species or system mouse (B6 D2 F1); settings: 25 mg/kg/day i.p.
Procedure: Assessment of the "in vitro-ex vivo" effect of ST 557, ST 563, ST 608 on the mytogen (PHA, LPS)-induced splenocyte proliferation in mice
Male B6 D2 F1 mice aged 6-10 weeks (4 animals per group) were used.
The compounds were administered i.p. 25 mg/kg/day, from day -5 to -1 (spleen excision at day 0).
PHA (active on T lymphocytes) and LPS (active on B lymphocytes) were used as mytogens. Each mytogen was tested at three different concentrations (suboptimal, optimal, superoptimal): 0.5, 4 and 6 mcg/ml/well and 0.5, 150 and 500 mcg/ml/well, respectively.
The experimental procedure was conducted substantially as described by Kirchner et al., "Splenic suppressor macrophages induced in mice by injection of C. parvum", J. Immunol., 1975, 115: 1212.
In particular, the cell suspensions obtained from the spleens of the animals of the same group were pooled and the cell concentration was adjusted to 5×10^6 cells/ml.
To volumes of 0.1 ml of each sample, equal volumes of the mytogen preparations were added so as to obtain, for each mytogen, the previously indicated final concentrations.
Each sample was prepared in triplicate in U-bottom microtiters. A control, to which 0.1 ml of medium were added instead of the mytogen, was also prepared. The control permits the extent of spontaneous proliferation in the absence of stimulation to be assessed.
The samples were incubated at 37° C. for 48 hours and then they were pulsed with 20 μl ^3 H-TdR (25 μCi/ml).
After 18 hours of further incubation, the cells were collected on filters and counted in a beta-counter.
The results of each sample are expressed by calculating the value of the area under the curve (AUC) obtained by plotting the values of the incorporated radioactivity (in cpm) versus the various concentrations of each mytogen.
In addition to AUC, the stimulation index (SI) is also considered, that is defined as follows. [formula]

[5] = system: murine peritoneal exudate cells (PEC); test: "In vitro-ex vivo" effect on the phagocytic activity of exudate peritoneal cells (SRBC phagocytosis); design: species or system mouse (B6 D2 F1); settings: for SRBC per phagocytizing cell: average number of SRBC in each phagocyte
Procedure: Assessment of the "in vitro-ex vivo" effect of ST 557, ST 563, ST 564, ST 570, ST 608 and ST 626 on the phagocytic activity of exudate peritoneal cells (PEC)
Male B6 D2 F1 mice aged 6-8 weeks (5 animals each group) were used.
The compounds were administered i.p. (25 mg/kg/day), ST 557, ST 563 and ST 626 were also administered per os (100 mg/kg/day) from day -5 to day -1 (PEC harvesting at day 0).
The experimental procedure was substantially the same as that described by Williams et al., in "Methods in Immunology and Immunochemistry", Acad. Press. 5: 261 (1976).
In particular, 24 hours following the end of the treatment, PECs from each experimental group were harvested, pooled and their concentration was adjusted to 4×10^6 cells/ml.
To volumes of 250 μl of each PEC sample were added equal volumes of 0.4% SRBC (Sheep Red Blood Cells) opsonized with hyperimmune serum.
The samples (duplicate) were incubated for 1 hour and then subjected to hypotonic shock in order to remove the non-phagocytized SRBC. After restoring the osmolarity, the phagocytes were cytocentrifuged, stained with a differential dye and observed under the microscope.
The results were expressed as:
(a) percentage of cells that have phagocytized with respect to 100 phagocytizing cells;
(b) total number of phagocytized SRBC;
(c) average number of SRBC in each phagocyte.

[6] = 48 hours, E/T 20:1, 25 mg/kg/day i.p., B6 D2 F1
[7] = 48 hours, E/T 20:1, 25 mg/kg/day i.p., repeated experiment, B6 D2 F1
[8] = 48 hours, E/T 20:1, 25 mg/kg/day i.p., repeated experiment, C57B16 mice
[9] = 48 hours, E/T 40:1, 25 mg/kg/day i.p., B6 D2 F1
[10] = 48 hours, E/T 40:1, 25 mg/kg/day i.p., repeated experiment, B6 D2 F1
[11] = 48 hours, E/T 40:1, 25 mg/kg/day i.p., repeated experiment, C57B16 mice
[12] = 48 hours, E/T 80:1, 25 mg/kg/day i.p., repeated experiment, B6 D2 F1
[13] = 72 hours, E/T 20:1, 25 mg/kg/day i.p., B6 D2 F1
[14] = 72 hours, E/T 20:1, 25 mg/kg/day i.p., repeated experiment, B6 D2 F1
[15] = 72 hours, E/T 20:1, 25 mg/kg/day i.p., repeated experiment, C57B16 mice
[16] = 72 hours, E/T 40:1, 25 mg/kg/day i.p., B6 D2 F1
[17] = 72 hours, E/T 40:1, 25 mg/kg/day i.p., repeated experiment, B6 D2 F1
[18] = 72 hours, E/T 40:1, 25 mg/kg/day i.p., repeated experiment, C57B16 mice
[19] = 72 hours, E/T 80:1, 25 mg/kg/day i.p., repeated experiment, B6 D2 F1

Row | SMILES | % lysis of tumor target [2, 6] | % lysis of tumor target [2, 7] | % lysis of tumor target [2, 8] | % lysis of tumor target [2, 9] | % lysis of tumor target [2, 10] | % lysis of tumor target [2, 11] | % lysis of tumor target [2, 12] | % lysis of tumor target [2, 13] | % lysis of tumor target [2, 14] | % lysis of tumor target [2, 15] | % lysis of tumor target [2, 16] | % lysis of tumor target [2, 17] | % lysis of tumor target [2, 18] | % lysis of tumor target [2, 19] | Fagocytizing cells ([5]; 25 mg/kg/day i.p.) | Total n° SRBC phagocytized ([5]; 25 mg/kg/day i.p.) | SRBC per phagocytizing cell ([5]; 25 mg/kg/day i.p.) | further results
1 | CCN(CC(O)c1ccccc1)C1CCc2cc(OC)c(OC)cc2C1 (stereo not shown) [ST 570, 2-[(N-ethyl, N-2-hydroxy-2-phenylethyl)amino]-6,7-dimethoxytetraline] | 14.0 ± 0.7% | 9.0 ± 0.4% | 8.8 ± 1.2% | 34.7 ± 1.2% | 10.9 ± 1.0% | 13.0 ± 0.5% | 19.0 ± 1.0% | 19.3 ± 0.7% | 13.2 ± 0.2% | 10.8 ± 1.5% | 45.4 ± 2.1% | 15.7 ± 0.8% | 14.9 ± 0.3% | 25.3 ± 1.0% |  |  |  | Fagocytizing cells [1]: 41.0%; SRBC per phagocytizing cell ([1]; average number of SRBC in each phagocyte): 3.3; % lysis of tumor target ([2]; 48 hours, E/T 80:1, 25 mg/kg/day i.p., repeated experiment, C57B16 mice): 14.6 ± 0.6%; % lysis of tumor target ([2]; 72 hours, E/T 80:1, 25 mg/kg/day i.p., repeated experiment, C57B16 mice): 16.2 ± 0.8%; % of inhibition of target tumor growth ([3]; E/T 20:1, 25 mg/kg/day i.p.): 38.3 ± 2.5%; % of inhibition of target tumor growth ([3]; E/T 40:1, 25 mg/kg/day i.p.): 71.0 ± 2.4%; MTD at 168 h ([4]; iv): > 20 mg/kg; MTD at 168 h ([4]; po, os, fasting 18 hours): > 50 mg/kg
2 | CCCNC1CCc2cc(OC(C)=O)c(OC(C)=O)cc2C1 (stereo not shown) [ST 608, 2-N-propylamino-6,7-diacetoxytetraline] |  |  |  |  |  |  |  |  |  |  |  |  |  |  | 41.0% | 137.5 | 3.30 | AUC (area under curve, incorporated radioactivity vs mytogen concentration) (splenocytes; LPS): 10333 ± 807 ×10^-3 and 18054 ± 970 ×10^-3 and 14490 ± 433 ×10^-3 and 15892 ± 339 ×10^-3; S.I. (stimulation index) (splenocytes; LPS): 1.27 and 1.10 and 1.20 and 1.06; AUC (area under curve, incorporated radioactivity vs mytogen concentration) (splenocytes; PHA): 183 ± 6 ×10^-3 and 128 ± 4 ×10^-3 and 146 ± 4 ×10^-3 and 233 ± 2 ×10^-3; S.I. (stimulation index) (splenocytes; PHA): 1.11 and 1.04 and 1.07 and 1.12
3 | COc1cc2c(cc1F)CCC(N)C2 (stereo not shown) [ST 626, 2-amino-6-fluoro-7-methoxytetraline] | 7.4 ± 0.2% | 8.0 ± 0.8% | 11.8 ± 0.6% | 12.8 ± 0.8% | 18.7 ± 0.1% and 11.6 ± 0.7% | 12.7 ± 0.1% | 18.8 ± 0.1% and 28.0 ± 5.6% | 10.8 ± 0.3% | 12.3 ± 0.6% | 12.6 ± 0.1% | 17.6 ± 0.8% | 27.5 ± 0.6% and 14.3 ± 0.6% | 13.5 ± 0.7% | 28.0 ± 0.7% and 32.0 ± 4.3% | 41.0% | 137.5 | 3.30 | Fagocytizing cells ([5]; 100 mg/kg/day os): 57.0%; Total n° SRBC phagocytized ([5]; 100 mg/kg/day os): 222.0; SRBC per phagocytizing cell ([5]; 100 mg/kg/day os): 3.89

Source: patent US5962525A, “6,7-disubstituted-2-aminotetralines active as immunomodulators and pharmaceutical compositions containing same” (Sigma-Tau, priority 1990, dated 1999)
